What was measured:
[1] = system: GR target genes in NALM6 cells; experiment: RT-qPCR of GR target genes in NALM6 cells; type: cell-based, human; settings: NALM6, 16 nM AZD2811 24 h, then 100 nM dex 8 h
Method: RNA was isolated using TRIzol (Invitrogen) according to the manufacturer's instructions. Reverse transcription reaction was performed using Superscript III (ThermoFisher) according to specifications with 1 μg of total RNA as template. Quantitative PCR amplification of the resulting cDNA was performed on a Roche LightCycler 480 using SYBR green I master mix (Roche). mRNA levels were normalized to the level of b-actin mRNA.
(§1) FIGS. 40A, 40B, 40C, 40D-1, 40D-2, 40D-3, and 40D-4 show Aurora kinase B inhibitors sensitizing NALM6 cells to GC-induced cell death. As shown in FIGS. 40A and 40B, NALM6 cells were treated with the indicated dex concentration in addition to 0.75 μM ZM447439 (FIG. 40A), 16 nM AZD2811 (FIG. 40B), or equivalent volume of vehicle DMSO for 72 h, and cell survival was measured by a fluorescence metabolic assay. In each condition, the value measured with dex was normalized to the fluorescence value measured with ethanol. Percentage of survival is shown as the mean±SEM of 4 independent experiments and p-values for individual dex concentrations were calculated using a paired t-test. *p≤0.05, **p≤0.01, * * *p≤0.001. F-test comparing the two curves: p≤0.001. Insets show the EC50s that were calculated as the concentration at which half the cells remained alive, compare to vehicle controls. Error bars depict the SEM of 4 independent experiments and p-values were calculated to compare AURKB inhibitor treatment to DMSO using a paired t-test ** p≤0.01, * * *p≤0.001. […] The indicated proteins were then examined by immunoblot. As shown in FIGS. 40D-1, 40D-2, 40D-3, and 40D-4, NALM6 cells pre-treated with AZD2811 (16 nM) or DMSO for 24 h, were then treated for 8 h with 100 nM dex or ethanol. mRNA levels for the indicated GR target genes were measured by RT-qPCR and normalized to β-actin mRNA levels.
FIGS. 54A, 54B, and 54C highlight the GR Target genes that require G9a and GLP as coactivators.

EHMT2 phosphorylation = experiment: Phosphorylation of EHMT2 in NALM-6 cells (pan ph-T immunoprecipitation, EHMT2 immunoblot); type: cell-based, human; settings: NALM-6, 16 nM AZD2811, 24 h
Method: (§2) Cells were treated as indicated, and cell extracts were prepared in RIPA buffer ([…] Tris-HCl, pH 8, 150 mM NaCL, 1 mM EDTA, 1% NP-40, and 0.25% deoxycholate) supplemented with protease inhibitor tablets (Roche Molecular Biochemicals) and phosphatase inhibitors (1 mM NaF, 1 mM Na3VO4, and 1 mM β-glycerophosphate). Protein extracts were incubated overnight at 4° C. with shaking with 1 μg of antibodies against EHMT2 (Sigma G6919), EHMT1 (Millipore 09-078), or pan phospho-threonine (Millipore AB1607). Protein A/G plus agarose beads (Santa Cruz sc-2003) were added, and the mixture was incubated 2 h at 4° C. The immunoprecipitates were separated on SDS-PAGE. […]
FIGS. 48A, 48B, 48C, 48D, 48E, and 48F show the effect of AURKB inhibitors on EHMT2 phosphorylation and dex-induced cell death. […] In each condition, the value measured with dex was normalized to the fluorescence value measured with ethanol. Percentage of survival is shown as the mean±SEM of 4 independent experiments and p-values for individual dex concentrations were calculated using a paired t-test. *p≤0.05, **p≤0.01, * * *p≤0.001. […] EC50s were calculated as the concentration at which half the cells remained alive, compare to vehicle controls. Error bars depict the SEM of 4 independent experiments and p-value was calculated to compare ZM treatment to DMSO using a paired t-test **p≤0.01, * * *p≤0.001. […]

[2] = system: LAX7R and LAX56 primary human B-ALL cells; experiment: Survival of primary B-ALL cells co-cultured with OP-9 feeder cells (Annexin V/7AAD); type: cell-based
Method: Primary ALL cells (LAX7R and LAX56) were established from mouse xenografts derived from patient samples (Adam et al., 2017; Hsieh et al., 2013). They were cultured in 24 well tissue-culture plates on irradiated OP-9 cells with growth medium containing MEM-α with 20% heat-inactivated fetal bovine serum, and 100 IU/ml penicillin and 100 μg/ml streptomycin. On day 3 and day 5 after the addition of drugs, ALL cells were collected, and apoptosis was assessed using PE Annexin V Apoptosis Detection Kit with 7-AAD.
As shown FIGS. 41A-1, 41A-2, 41B-1, and 41B-2, LAX7R (FIGS. 41A-1 and 41A-2) or LAX56 (FIGS. 41B-1 and 41B-2) primary human B-ALL cells were co-cultured with OP-9 feeder cells for 3 days (left) or 5 days (right) in the presence of the indicated drugs, and cell survival was determined by staining with Annexin/7AAD. p-value was calculated using a paired t-test, and different symbols were used to indicate p-values between different groups.+indicates statistical significance (+p≤0.05, ++p≤0.01 and + + + p≤0.001) between Dexamethasone or AZD2811 treated group and DMSO control group; # indicates statistical significance (#p≤0.05, ##p≤0.01 and # # # p≤0.001) between AZD2811+Dexamethasone combination group and AZD2811 group; * indicates statistical difference (*p≤0.05, **p≤0.01, * * *p≤0.001) between combination group and respective Dexamethasone treated groups. Values shown are mean and SD for 3 biological replicates, which are representative of 3 independent experiments.

NALM6 cells [3] = experiment: Cell death assay (Presto Blue, 72 h) with dex plus inhibitor; type: cell-based, human
Method: Cells were plated in CellStar low evaporation lid 96-well round-bottom plate at a density of 100,000 cells/ml. Directly after plating, cells were treated in triplicate with serial dilutions of dexamethasone or vehicle control (0.1% ethanol). After 72 h, cell viability of each well was analyzed in duplicate using the Presto Blue Assay Reagent (Life Technologies). Fluorescence was measured and data were analyzed with Prism6 software.
as §1
FIGS. 48A, 48B, 48C, 48D, 48E, and 48F show the effect of AURKB inhibitors on EHMT2 phosphorylation and dex-induced cell death. […] In each condition, the value measured with dex was normalized to the fluorescence value measured with ethanol. Percentage of survival is shown as the mean±SEM of 4 independent experiments and p-values for individual dex concentrations were calculated using a paired t-test. *p≤0.05, **p≤0.01, * * *p≤0.001. F-test comparing the two curves: p≤0.001. EC50s were calculated as the concentration at which half the cells remained alive, compare to vehicle controls. Error bars depict the SEM of 4 independent experiments and p-value was calculated to compare ZM treatment to DMSO using a paired t-test **p≤0.01, * * *p≤0.001. […] EC50s were calculated as the concentration at which half the cells remained alive, compare to vehicle controls. Error bars depict the SEM of 4 independent experiments and p-value was calculated to compare alisertib treatment to DMSO using a paired t-test. […] (E-F) RCH-ACV cells were treated with the indicated dex concentration in addition to 0.75 μM ZM447439 (FIG. 48E), 16 nM AZD2811 (FIG. 48F), or DMSO for 72 h, and cell survival was measured by a fluorescence metabolic assay. In each condition, the value measured with dex was normalized to the fluorescence value measured with ethanol. Percentage of survival is shown as the mean±SEM of 5 individual experiments and the p-value for each dex concentration was calculated using a paired t-test. *p≤0.05, **p≤0.01, * * *p≤0.001. F-test comparing the two curves: p≤0.001.
FIGS. 55A, 55B, and 55C show JIB-04 enhances GC-induced death of B-ALL cell line NALM6.

NALM6 cells [4] = experiment: Immunoblot of apoptosis markers (cleaved caspase 3, caspase 7, PARP1) in NALM6 cells; type: cell-based, human; settings: 16 nM AZD2811 pretreatment 24 h, then 100 nM dex 24 h
Method: as §2
FIGS. 40A, 40B, 40C, 40D-1, 40D-2, 40D-3, and 40D-4 show Aurora kinase B inhibitors sensitizing NALM6 cells to GC-induced cell death. As shown in FIGS. 40A and 40B, NALM6 cells were treated with the indicated dex concentration in addition to 0.75 μM ZM447439 (FIG. 40A), 16 nM AZD2811 (FIG. 40B), or equivalent volume of vehicle DMSO for 72 h, and cell survival was measured by a fluorescence metabolic assay. In each condition, the value measured with dex was normalized to the fluorescence value measured with ethanol. Percentage of survival is shown as the mean±SEM of 4 independent experiments and p-values for individual dex concentrations were calculated using a paired t-test. *p≤0.05, **p≤0.01, * * *p≤0.001. […]

G9a methylation = G9a methylation level in NALM6 cells treated with KDM inhibitors; type: cell-based, human
Text: There are two distinct families of KDM with distinct catalytic mechanisms (FIG. 50B). We tested one inhibitor for each family: OG-L002 inhibits the two members of the LSD family of KDM, and JIB-04 inhibits several members of the large JmjC family of KDM, including members of the KDM2, KDM3, and KDM4 subfamilies. We propose that there is an equilibrium between the enzymes that methylate G9a and GLP (in this case they methylate themselves) and the KDM enzymes to maintain a moderate level of G9a/GLP methylation (FIGS. 50C-1, 50C-2), and that inhibition of the KDMs that normally demethylate G9a and GLP (currently unknown) will increase the level of G9a/GLP methylation and thereby enhance the coactivator activity of G9a/GLP, the GC activation of the cell death genes, and GC-induced cell death in B-ALL cells. Thus, as a first step to identify the G9a/GLP-specific demethylases, we treated NALM6 cells with the two inhibitors named above. OG-L002 had no effect on the level of G9a methylation, but JIB-04 increased the level of G9a methylation in NALM6 cells (FIG. 50D).

Structure (SMILES) | dex-induced expression of dex-effector genes that utilize EHMT2, EHMT1 and CBX3 [1] | phosphorylation of EHMT2 (EHMT2 phosphorylation) | cell survival compared with the vehicle-treated control ([2]; 16 nM AZD2811 alone, 3 or 5 days) | cell survival ([2]; 16 nM AZD2811 in combination with 0.1 nM dex, 3 or 5 days) | dex sensitivity of the two dex-resistant primary B-ALL lines ([2]; 16 nM AZD2811 with dex) | dex-induced cell death (NALM6 cells [3]; NALM6, 16 nM AZD2811, 72 h) | cleavage of apoptotic markers in dex-treated NALM6 (NALM6 cells [4]) | GC-induced death of NALM6 cells (NALM6 cells [3]; 72 hours with various dex concentrations plus KDM inhibitor) | level of G9a methylation (G9a methylation)
CCN(CCO)CCCOc1ccc2c(Nc3cc(CC(=O)Nc4cccc(F)c4)[nH]n3)ncnc2c1 [AZD2811] | enhanced | decreased | 70-80% | 10-40% | dramatically enhanced | enhanced | increased | – | –
N[C@H]1C[C@@H]1c1ccc(-c2cccc(O)c2)cc1 [OG-L002, 3-[4-[(1R,2S)-2-aminocyclopropyl]phenyl]phenol] | – | – | – | – | – | – | – | no effect | no effect

From patent US20200181284A1, “EPIGENETIC INHIBITORS FOR SENSITIZING HEMATOLOGIC OR OTHER MALIGNANCIES TO GLUCOCORTICOID THERAPY” (UNIVERSITY OF SOUTHERN CALIFORNIA, priority 2017, published 2020)
